The conditions of series [1]: background art statement; cited from earlier work.
The nature of series [2]: In vitro rat skin permeability test (Test Example 1). As for the experimental part: The rat abdominal skin was exfoliated, the dermis side of the skin was directed to a side of a receptor layer, and its inside was filled with phosphate buffered saline. Water kept at 37° C. was circulated in a water jacket.

The values below come from patent US8932626B2, “Felbinac-containing transdermally absorbable preparation” (Teikoku Seiyaku Co., Ltd., priority 2009, dated 2015).

As to `O=C(O)Cc1ccc(-c2ccccc2)cc1` [Felbinac], in series [1], the “solubility in various solvents” value is “very low”.
Regarding `CC(C(=O)O)c1cccc(C(=O)c2ccccc2)c1` (stereo not drawn) [ketoprofen], in series [2] (Comparative Study (2), FIG. 3, patch with ketoprofen and lidocaine (Comparative Example 4) versus only ketoprofen (Comparative Example 3)), the “releasing of ketoprofen (permeated amount through excised rat skin)” value is on record as “inhibited significantly”. Also, in series [2] (summary of Comparative Studies (1) to (3)), the “releasing effect of the anti-inflammatory analgesic obtained by formulating lidocaine” value is recorded as “not observed”.
